Source: patent US20230114728A1 (Venatorx Pharmaceuticals, Inc., priority 2019, published 2023)
Values after ≈ are worked out from the molar mass of the structure shown.

Columns and labels:
Assay in all cases: Broth microdilution MIC in CAMHB
Assay type in all cases: cell-based
A. baumannii ATCC 19606 = conditions: Acinetobacter baumannii, ATCC19606; MHB; read-out: Minimum Inhibitory Concentration, A. baumannii ATCC 19606
In short: (§1)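 Per CLSI broth microdilution, colonies were grown 3-5 h at 37° C in cation-adjusted Mueller Hinton broth, then diluted to a starting inoculum of 2-8×10^5 CFU/mL against 2-fold serial compound dilutions. Plates were incubated 16-20 h at 37° C, and MIC was read visually as the lowest concentration with no growth.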

E. coli 901C = conditions: Escherichia coli; E. coli 901C (hyper-permeable); MHB; read-out: Minimum Inhibitory Concentration, E. coli 901C
In short: as §1

E. coli AG100A = conditions: Escherichia coli, read-out: Minimum Inhibitory Concentration, E. coli AG100A
In short: as §1

E. coli AG100 = conditions: Escherichia coli; E. coli AG100 (wild-type parent); MHB; read-out: Minimum Inhibitory Concentration, E. coli AG100
In short: as §1

E. coli ATCC 25922 = conditions: Escherichia coli, ATCC25922; E. coli ATCC 25922; MHB; read-out: Minimum Inhibitory Concentration, E. coli 25922
In short: as §1

E. coli D22 = conditions: Escherichia coli; E. coli D22 (hyper-permeable); MHB; read-out: Minimum Inhibitory Concentration, E. coli D22
In short: as §1

[1] = test system: K. pneumoniae 848844 producing SHV-11 and KPC-2; conditions: Klebsiella pneumoniae, read-out: Minimum Inhibitory Concentration, K. pneumoniae 848844
In short: as §1

[2] = test system: K. pneumoniae SI-117 producing VIM-1; conditions: Klebsiella pneumoniae, read-out: Minimum Inhibitory Concentration, K. pneumoniae SI-117
In short: as §1

[3] = test system: K. pneumoniae UMM producing SHV-5 and KPC-2; conditions: Klebsiella pneumoniae, read-out: Minimum Inhibitory Concentration, K. pneumoniae UMM
In short: as §1

[4] = test system: P. aeruginosa (ΔmexAB-oprM); conditions: Pseudomonas aeruginosa, read-out: Minimum Inhibitory Concentration, P. aeruginosa ΔmexAB-OprM
In short: as §1

P. aeruginosa ATCC 27853 = conditions: Pseudomonas aeruginosa, ATCC27853; MHB; read-out: Minimum Inhibitory Concentration, P. aeruginosa ATCC 27853
In short: as §1

P. aeruginosa ATCC 35151 = conditions: Pseudomonas aeruginosa, ATCC35151; MHB; hyper-permeable strain; read-out: Minimum Inhibitory Concentration, P. aeruginosa ATCC 35151
In short: as §1

Row | Structure (SMILES) | MIC (A. baumannii ATCC 19606) | MIC (E. coli 901C) | MIC (E. coli AG100A) | MIC (E. coli AG100) | MIC (E. coli ATCC 25922) | MIC (E. coli D22) | MIC [1] | MIC [2] | MIC [3] | MIC [4] | MIC (P. aeruginosa ATCC 27853) | MIC (P. aeruginosa ATCC 35151)
1 | CCN1CCN(C(=O)N[C@@H](C(=O)N[C@H]2Cc3cccc(C(=O)O)c3OB2O)c2ccc(C(=O)O)cc2)C(=O)C1=O (single isomer, unassigned) [Example 124] | > 128 µg/mL | < 0.25 µg/mL | 2 to 4 µg/mL (≈ 3.62 to 7.24 µM) | 8 to 16 µg/mL (≈ 14.5 to 29 µM) | 32 to 64 µg/mL (≈ 57.9 to 116 µM) | 2 to 4 µg/mL (≈ 3.62 to 7.24 µM) | > 128 µg/mL | > 128 µg/mL | 32 to 64 µg/mL (≈ 57.9 to 116 µM) | 2 to 4 µg/mL (≈ 3.62 to 7.24 µM) | 32 to 64 µg/mL (≈ 57.9 to 116 µM) | < 0.25 µg/mL
2 | CCN1CCN(C(=O)N[C@H](C(=O)N[C@H]2Cc3ccc(F)c(C(=O)O)c3OB2O)c2c(F)cc(O)c(O)c2Cl)C(=O)C1=O (single isomer, unassigned) [Example 125] | > 128 µg/mL | < 0.25 µg/mL | 2 to 4 µg/mL (≈ 3.27 to 6.55 µM) | 32 to 64 µg/mL (≈ 52.4 to 105 µM) | 32 to 64 µg/mL (≈ 52.4 to 105 µM) | 2 to 4 µg/mL (≈ 3.27 to 6.55 µM) | 32 to 64 µg/mL (≈ 52.4 to 105 µM) | 32 to 64 µg/mL (≈ 52.4 to 105 µM) | 32 to 64 µg/mL (≈ 52.4 to 105 µM) | 32 to 64 µg/mL (≈ 52.4 to 105 µM) | > 128 µg/mL | 2 to 4 µg/mL (≈ 3.27 to 6.55 µM)
3 | O=C(O)c1cccc2c1OB(O)[C@@H](NC(=O)[C@H](NC(=O)N1CCN(CCF)C(=O)C1=O)c1c(F)cc(O)cc1F)C2 (single isomer, unassigned) [Example 126] | > 128 µg/mL | < 0.25 µg/mL | – | 8 to 16 µg/mL (≈ 13.8 to 27.7 µM) | 8 to 16 µg/mL (≈ 13.8 to 27.7 µM) | 0.5 to 1 µg/mL (≈ 0.865 to 1.73 µM) | 32 to 64 µg/mL (≈ 55.3 to 111 µM) | 8 to 16 µg/mL (≈ 13.8 to 27.7 µM) | 8 to 16 µg/mL (≈ 13.8 to 27.7 µM) | 8 to 16 µg/mL (≈ 13.8 to 27.7 µM) | > 128 µg/mL | 2 to 4 µg/mL (≈ 3.46 to 6.92 µM)
4 | NCCN1CCN(C(=O)N[C@@H](C(=O)N[C@H]2Cc3ccc(F)c(C(=O)O)c3OB2O)c2c(F)cc(O)cc2F)C(=O)C1=O (single isomer, unassigned) [Example 127] | > 128 µg/mL | 2 to 4 µg/mL (≈ 3.37 to 6.74 µM) | 8 to 16 µg/mL (≈ 13.5 to 27 µM) | 8 to 16 µg/mL (≈ 13.5 to 27 µM) | 8 to 16 µg/mL (≈ 13.5 to 27 µM) | 2 to 4 µg/mL (≈ 3.37 to 6.74 µM) | 32 to 64 µg/mL (≈ 53.9 to 108 µM) | 32 to 64 µg/mL (≈ 53.9 to 108 µM) | 8 to 16 µg/mL (≈ 13.5 to 27 µM) | 8 to 16 µg/mL (≈ 13.5 to 27 µM) | > 128 µg/mL | 0.5 to 1 µg/mL (≈ 0.843 to 1.69 µM)
5 | NCCN1CCN(C(=O)N[C@H](C(=O)N[C@H]2Cc3ccc(F)c(C(=O)O)c3OB2O)c2c(F)cc(O)cc2F)C(=O)C1=O (single isomer, unassigned) [Example 128] | > 128 µg/mL | 8 to 16 µg/mL (≈ 13.5 to 27 µM) | 32 to 64 µg/mL (≈ 53.9 to 108 µM) | 32 to 64 µg/mL (≈ 53.9 to 108 µM) | 32 to 64 µg/mL (≈ 53.9 to 108 µM) | 8 to 16 µg/mL (≈ 13.5 to 27 µM) | > 128 µg/mL | > 128 µg/mL | 32 to 64 µg/mL (≈ 53.9 to 108 µM) | 32 to 64 µg/mL (≈ 53.9 to 108 µM) | > 128 µg/mL | 2 to 4 µg/mL (≈ 3.37 to 6.74 µM)
6 | CS(=O)(=O)N1CCN(C(=O)N[C@@H](C(=O)N[C@H]2Cc3cccc(C(=O)O)c3OB2O)c2c(F)cc(O)cc2F)C1=O (single isomer, unassigned) [Example 135] | > 128 µg/mL | < 0.25 µg/mL | 0.5 to 1 µg/mL (≈ 0.859 to 1.72 µM) | 32 to 64 µg/mL (≈ 55 to 110 µM) | 8 to 16 µg/mL (≈ 13.7 to 27.5 µM) | 2 to 4 µg/mL (≈ 3.43 to 6.87 µM) | 32 to 64 µg/mL (≈ 55 to 110 µM) | 32 to 64 µg/mL (≈ 55 to 110 µM) | 32 to 64 µg/mL (≈ 55 to 110 µM) | 32 to 64 µg/mL (≈ 55 to 110 µM) | > 128 µg/mL | 2 to 4 µg/mL (≈ 3.43 to 6.87 µM)
7 | CCN1CCN(C(=O)N[C@@H](C(=O)N[C@H]2Cc3cccc(C(=O)O)c3OB2O)c2ccc(C(=O)O)c(Cl)c2)C(=O)C1=O (single isomer, unassigned) [Example 154] | 32 to 64 µg/mL (≈ 54.5 to 109 µM) | < 0.25 µg/mL | 8 to 16 µg/mL (≈ 13.6 to 27.3 µM) | 32 to 64 µg/mL (≈ 54.5 to 109 µM) | 32 to 64 µg/mL (≈ 54.5 to 109 µM) | 2 to 4 µg/mL (≈ 3.41 to 6.82 µM) | > 128 µg/mL | – | 32 to 64 µg/mL (≈ 54.5 to 109 µM) | 8 to 16 µg/mL (≈ 13.6 to 27.3 µM) | > 128 µg/mL | < 0.25 µg/mL
8 | CCN1CCN(C(=O)NC(C(=O)N[C@H]2Cc3cccc(C(=O)O)c3OB2O)c2c(F)cc(O)cc2F)C(=O)C1=O (stereo partly drawn) [Example 105, (3R)-3-(2-(2,6-difluoro-4-hydroxyphenyl)-2-(4-ethyl-2,3-dioxopiperazine-1-carboxamido)acetamido)-2-hydroxy-3,4-dihydro-2H-benzo[e][1,2]oxaborinine-8-carboxylic acid] | – | < 0.25 µg/mL | 0.5 to 1 µg/mL (≈ 0.892 to 1.78 µM) | 8 to 16 µg/mL (≈ 14.3 to 28.6 µM) | 8 to 16 µg/mL (≈ 14.3 to 28.6 µM) | 0.5 to 1 µg/mL (≈ 0.892 to 1.78 µM) | 32 to 64 µg/mL (≈ 57.1 to 114 µM) | 32 to 64 µg/mL (≈ 57.1 to 114 µM) | 8 to 16 µg/mL (≈ 14.3 to 28.6 µM) | – | – | –
